“And” between values parts separate entries of the source, which are not always exact repeats. Equal entries are not always repeated. Where two headings read alike, the source gives them in different places.
System: soybean plants containing DMO-encoding polynucleotide construct (Events 1-5)
Text: Non-transgenic and transgenic soybean seeds were planted around the beginning of the growing season at the time of optimum growth conditions depending on soil moisture, temperature, and seeding depth. […] The design details were as follows: 6 locations, 2 replications/location, 2 rows/plot, row length 12 feet (+3 ft alley), 9 seeds/foot, 108 seeds/row, 5 events (Events 1-4 and a fifth event that was segregating); and 4 treatments as shown below in Table 5. In all 240 plots were planted at 6 locations (40 per location).
Four non-transgenic border rows were planted all around the trial using a known commercial line such as A3525. Optimum production and management practices known in the art were followed. […] The field was irrigated as needed according to standard practices.
Seed planting and pre-emergence treatment were carried out approximately one-month apart in late spring in Monmouth, Ill.

[1] = Event 1, Post at V3: 1.5 lb/acre 4 weeks after planting
[2] = Event 1, Pre & Post: 1.5 lb/acre at planting and 1.5 lb/acre 4 weeks after planting
[3] = Event 1, Pre at sowing: 1.5 lb/acre at planting
[4] = Event 2, Post at V3: 1.5 lb/acre 4 weeks after planting
[5] = Event 2, Pre & Post: 1.5 lb/acre at planting and 1.5 lb/acre 4 weeks after planting
[6] = Event 2, Pre at sowing: 1.5 lb/acre at planting
[7] = Event 3, Post at V3: 1.5 lb/acre 4 weeks after planting
[8] = Event 3, Pre & Post: 1.5 lb/acre at planting and 1.5 lb/acre 4 weeks after planting
[9] = Event 3, Pre at sowing: 1.5 lb/acre at planting
[10] = Event 4, Post at V3: 1.5 lb/acre 4 weeks after planting
[11] = Event 4, Pre & Post: 1.5 lb/acre at planting and 1.5 lb/acre 4 weeks after planting
[12] = Event 4, Pre at sowing: 1.5 lb/acre at planting
[13] = Event 5 (segregating), Post at V3: 1.5 lb/acre 4 weeks after planting
[14] = Event 5 (segregating), Pre & Post: 1.5 lb/acre at planting and 1.5 lb/acre 4 weeks after planting
[15] = Event 5 (segregating), Pre at sowing: 1.5 lb/acre at planting

COc1c(Cl)ccc(Cl)c1C(=O)O [dicamba, 3,6-dichloro-o-anisic acid]
% GR 6/27 [1]: 0% | % GR 7/5 [1]: 0% | % Inj 6/7 [1]: 0% | % Inj 6/13 [1]: 0% | % Inj 6/20 [1]: 0% | % Inj 6/27 [1]: 5% and 7% | % Inj 7/5 [1]: 0% | % GR 6/27 [2]: 0% and 3% | % GR 7/5 [2]: 0% | % Inj 6/7 [2]: 0% | % Inj 6/13 [2]: 0% and 2% | % Inj 6/20 [2]: 0% and 2% | % Inj 6/27 [2]: 5% | % Inj 7/5 [2]: 0% | % GR 6/27 [3]: 0% | % GR 7/5 [3]: 0% | % Inj 6/7 [3]: 0% | % Inj 6/13 [3]: 0% and 2% | % Inj 6/20 [3]: 0% | % Inj 6/27 [3]: 1% and 2% | % Inj 7/5 [3]: 0% | Dead or Stunted [3]: 0 | % GR 6/27 [4]: 0% | % GR 7/5 [4]: 0% | % Inj 6/7 [4]: 0% | % Inj 6/13 [4]: 0% | % Inj 6/20 [4]: 0% | % Inj 6/27 [4]: 3% | % Inj 7/5 [4]: 0% and 2% | % GR 6/27 [5]: 0% | % GR 7/5 [5]: 0% | % Inj 6/7 [5]: 0% | % Inj 6/13 [5]: 0% | % Inj 6/20 [5]: 0% | % Inj 6/27 [5]: 1% and 2% | % Inj 7/5 [5]: 2% and 0% | Dead or Stunted [5]: 0 | % GR 6/27 [6]: 0% | % GR 7/5 [6]: 0% | % Inj 6/7 [6]: 0% | % Inj 6/13 [6]: 0% | % Inj 6/20 [6]: 0% | % Inj 6/27 [6]: 5% and 2% | % Inj 7/5 [6]: 0% | Dead or Stunted [6]: 0 | % GR 6/27 [7]: 3% and 0% | % GR 7/5 [7]: 0% | % Inj 6/7 [7]: 0% | % Inj 6/13 [7]: 0% | % Inj 6/20 [7]: 0% | % Inj 6/27 [7]: 3% and 5% | % Inj 7/5 [7]: 0% and 3% | Dead or Stunted [7]: 0 | % GR 6/27 [8]: 0% | % GR 7/5 [8]: 0% | % Inj 6/7 [8]: 0% | % Inj 6/13 [8]: 0% and 2% | % Inj 6/20 [8]: 0% | % Inj 6/27 [8]: 3% | % Inj 7/5 [8]: 2% and 0% | Dead or Stunted [8]: 0 | % GR 6/27 [9]: 0% | % GR 7/5 [9]: 0% | % Inj 6/7 [9]: 0% | % Inj 6/13 [9]: 4% and 2% | % Inj 6/20 [9]: 0% | % Inj 7/5 [9]: 0% and 3% | Dead or Stunted [9]: 0 | % GR 6/27 [10]: 0% | % GR 7/5 [10]: 0% | % Inj 6/7 [10]: 0% | % Inj 6/13 [10]: 0% | % Inj 6/20 [10]: 0% | % Inj 6/27 [10]: 3% | % Inj 7/5 [10]: 0% | Dead or Stunted [10]: 0 | % GR 6/27 [11]: 8% and 3% | % GR 7/5 [11]: 2% and 0% | % Inj 6/7 [11]: 0% | % Inj 6/13 [11]: 0% and 1% | % Inj 6/20 [11]: 0% | % Inj 6/27 [11]: 3% | % Inj 7/5 [11]: 2% and 0% | Dead or Stunted [11]: 0 | % GR 6/27 [12]: 0% | % GR 7/5 [12]: 0% | % Inj 6/7 [12]: 0% | % Inj 6/13 [12]: 3% and 4% | % Inj 6/20 [12]: 0% | % Inj 6/27 [12]: 5% and 2% | % Inj 7/5 [12]: 0% | Dead or Stunted [12]: 0 | % GR 6/27 [13]: 0% and 5% | % GR 7/5 [13]: 0% | % Inj 6/7 [13]: 0% | % Inj 6/13 [13]: 0% | % Inj 6/20 [13]: 0% | % Inj 6/27 [13]: 7% and 5% | % Inj 7/5 [13]: 2% | Dead or Stunted [13]: 15 | % GR 6/27 [14]: 5% and 0% | % GR 7/5 [14]: 0% | % Inj 6/7 [14]: 0% | % Inj 6/13 [14]: 15% and 10% | % Inj 6/20 [14]: 10% | % Inj 6/27 [14]: 3% and 1% | % Inj 7/5 [14]: 0% | Dead or Stunted [14]: 23 and 20 | % GR 6/27 [15]: 0% | % GR 7/5 [15]: 0% | % Inj 6/7 [15]: 0% | % Inj 6/13 [15]: 15% and 8% | % Inj 6/20 [15]: 15% and 10% | % Inj 6/27 [15]: 5% and 2% | % Inj 7/5 [15]: 0% | Dead or Stunted [15]: 24 and 14 | injury in field, overall (pre- and post-emergence applications of dicamba, all transgenic soybean plants): no or very little injury

— US8629328B2 (Monsanto Technology LLC, priority 2006, dated 2014)
